Source: patent US20220119354A1, “DIAMINO-SUBSTITUTED PYRIDINES AND PYRIMIDINES AS HERBICIDES” (FMC Corporation, priority 2019, published 2022)

Columns and labels:
Format in all cases: in vivo
[1] = test system: ragweed (common ragweed, Ambrosia elatior); test: Test A postemergence, ragweed; settings: 0 to 100 scale
How it was run: (§1)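 Seeds sown in loam–sand blend received a directed soil spray of test chemical in non-phytotoxic solvent with surfactant (preemergence); postemergence plants at 2–10 cm, one- to two-leaf stage, were sprayed with the same formulation. Injury rated visually versus untreated controls after ~10 d in greenhouse, 0–100 scale.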

[2] = test system: pigweed (Amaranthus retroflexus); test: Test A postemergence, pigweed; settings: 0 to 100 scale
How it was run: as §1

[3] = test system: kochia (Kochia scoparia); test: Test A postemergence, kochia; settings: 0 to 100 scale
How it was run: as §1

[4] = test system: sedge, umbrella (small-flower umbrella sedge, Cyperus difformis); test: Test B flooded paddy test, umbrella sedge; settings: Flood, 250 g ai/ha, applied to paddy water, 2-leaf stage, visual evaluation after 13 to 15 d
How it was run: (§2)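 Each response is a visual 0–100 rating made against untreated controls, where 0 is no effect and 100 is complete control; a dash marks no result. Compound was dosed into 3 cm paddy water over 2-leaf plants, assessed after 13 to 15 d.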

[5] = test system: wheat (Triticum aestivum); test: Test A postemergence, wheat; settings: 0 to 100 scale
How it was run: as §1

[6] = test system: ryegrass, Italian (Lolium multiflorum); test: Test A postemergence, Italian ryegrass; settings: 0 to 100 scale
How it was run: as §1

[7] = test system: pigweed (Amaranthus retroflexus); test: Test A preemergence, pigweed; settings: 0 to 100 scale; for Pigweed plant response rating: 125 g ai/ha, 0 is no effect, 100 is complete control; for Plant response rating, Pigweed: 500 g ai/ha
How it was run: as §1

[8] = test system: galium (catchweed bedstraw, Galium aparine); test: Test A postemergence, galium; settings: 0 to 100 scale
How it was run: as §1

[9] = test system: corn (Zea mays); test: Test A postemergence, corn; settings: 0 to 100 scale
How it was run: as §1

[10] = test system: blackgrass (Alopecurus myosuroides); test: Test A postemergence, blackgrass; settings: 0 to 100 scale
How it was run: as §1

[11] = test system: ducksalad (Heteranthera limosa); test: Test B flooded paddy test, ducksalad; settings: Flood, 250 g ai/ha, applied to paddy water, 2-leaf stage, visual evaluation after 13 to 15 d
How it was run: as §2

[12] = test system: barnyardgrass (Echinochloa crus-galli); test: Test A postemergence, barnyardgrass; settings: 0 to 100 scale
How it was run: as §1

[13] = test system: barnyardgrass (Echinochloa crus-galli); test: Test B flooded paddy test, barnyardgrass; settings: Flood, 250 g ai/ha, applied to paddy water, 2-leaf stage, visual evaluation after 13 to 15 d
How it was run: as §2

[14] = test system: foxtail, giant (Setaria faberii); test: Test A postemergence, giant foxtail; settings: 0 to 100 scale
How it was run: as §1

[15] = test system: ragweed (common ragweed, Ambrosia elatior); test: Test A preemergence, ragweed; settings: 0 to 100 scale; for Ragweed plant response rating: 125 g ai/ha, 0 is no effect, 100 is complete control; for Plant response rating, Ragweed: 500 g ai/ha
How it was run: as §1

[16] = test system: rice (Oryza sativa); test: Test B flooded paddy test, rice; settings: Flood, 250 g ai/ha, applied to paddy water, 2-leaf stage, visual evaluation after 13 to 15 d
How it was run: as §2

[17] = test system: barnyardgrass (Echinochloa crus-galli); test: Test A preemergence, barnyardgrass; settings: 0 to 100 scale; for Barnyardgrass plant response rating: 125 g ai/ha, 0 is no effect, 100 is complete control; for Plant response rating, Barnyardgrass: 500 g ai/ha
How it was run: as §1

[18] = test system: kochia (Kochia scoparia); test: Test A preemergence, kochia; settings: 0 to 100 scale; for Kochia plant response rating: 125 g ai/ha, 0 is no effect, 100 is complete control; for Plant response rating, Kochia: 500 g ai/ha
How it was run: as §1

[19] = test system: ryegrass, Italian (Lolium multiflorum); test: Test A preemergence, Italian ryegrass; settings: 0 to 100 scale; for Ryegrass, Italian plant response rating: 125 g ai/ha, 0 is no effect, 100 is complete control; for Plant response rating, Ryegrass, Italian: 500 g ai/ha
How it was run: as §1

[20] = test system: foxtail, giant (Setaria faberii); test: Test A preemergence, giant foxtail; settings: 0 to 100 scale; for Foxtail, Giant plant response rating: 125 g ai/ha, 0 is no effect, 100 is complete control; for Plant response rating, Foxtail, Giant: 500 g ai/ha
How it was run: as §1

| SMILES | Plant response rating, Ragweed ([1]; 125 g ai/ha) | Plant response rating, Ragweed ([1]; 500 g ai/ha) | Plant response rating, Pigweed ([2]; 125 g ai/ha) | Plant response rating, Pigweed ([2]; 500 g ai/ha) | Plant response rating, Kochia ([3]; 125 g ai/ha) | Plant response rating, Kochia ([3]; 500 g ai/ha) | Plant response rating, Sedge, Umbrella (0 to 100 scale, 0 is no effect, 100 is complete control) [4] | Plant response rating, Wheat ([5]; 125 g ai/ha) | Plant response rating, Wheat ([5]; 500 g ai/ha) | Plant response rating, Ryegrass, Italian ([6]; 125 g ai/ha) | Plant response rating, Ryegrass, Italian ([6]; 500 g ai/ha) | Pigweed plant response rating [7] | Plant response rating, Pigweed [7] | Plant response rating, Galium ([8]; 125 g ai/ha) | Plant response rating, Galium ([8]; 500 g ai/ha) | Plant response rating, Corn ([9]; 125 g ai/ha) | Plant response rating, Corn ([9]; 500 g ai/ha) | Plant response rating, Blackgrass ([10]; 125 g ai/ha) | Plant response rating, Blackgrass ([10]; 500 g ai/ha) | Plant response rating, Ducksalad (0 to 100 scale, 0 is no effect, 100 is complete control) [11] | further results |
| --- | --- | --- | --- | --- | --- | --- | --- | --- | --- | --- | --- | --- | --- | --- | --- | --- | --- | --- | --- | --- | --- |
| Cc1cccc(OCC(C)Nc2ncc(C(F)(F)F)c(N)n2)c1 (stereo not drawn) [Compound 32] | 0 | 40 | 30 | 60 | 20 | 60 | 0 | 0 | 0 | 0 | 0 | 10 | 60 | 60 | 70 | 0 | 0 | 0 | 0 | 0 | Plant response rating, Barnyardgrass ([12]; 125 g ai/ha): 0; Plant response rating, Barnyardgrass ([12]; 500 g ai/ha): 20; Plant response rating, Barnyardgrass (0 to 100 scale, 0 is no effect, 100 is complete control) [13]: 0; Plant response rating, Foxtail, Giant ([14]; 125 g ai/ha): 0; Plant response rating, Foxtail, Giant ([14]; 500 g ai/ha): 40; Ragweed plant response rating [15]: 0; Plant response rating, Ragweed [15]: 100; Plant response rating, Rice (0 to 100 scale, 0 is no effect, 100 is complete control) [16]: 0; Barnyardgrass plant response rating [17]: 0; Plant response rating, Barnyardgrass [17]: 90; Kochia plant response rating [18]: 0; Plant response rating, Kochia [18]: 30; Ryegrass, Italian plant response rating [19]: 0; Plant response rating, Ryegrass, Italian [19]: 0; Foxtail, Giant plant response rating [20]: 20; Plant response rating, Foxtail, Giant [20]: 80 |
| CC(COc1cc(F)cc(F)c1)Nc1ncc(C(F)(F)F)c(N)n1 (stereo not drawn) [Compound 33] | 0 | 0 | 0 | 30 | 0 | 30 | 25 | 0 | 0 | 0 | 0 | 20 | 50 | 20 | 60 | 0 | 0 | 0 | 0 | 70 | Plant response rating, Barnyardgrass ([12]; 125 g ai/ha): 0; Plant response rating, Barnyardgrass ([12]; 500 g ai/ha): 0; Plant response rating, Barnyardgrass (0 to 100 scale, 0 is no effect, 100 is complete control) [13]: 0; Plant response rating, Foxtail, Giant ([14]; 125 g ai/ha): 0; Plant response rating, Foxtail, Giant ([14]; 500 g ai/ha): 0; Ragweed plant response rating [15]: 0; Plant response rating, Ragweed [15]: 0; Plant response rating, Rice (0 to 100 scale, 0 is no effect, 100 is complete control) [16]: 0; Barnyardgrass plant response rating [17]: 0; Plant response rating, Barnyardgrass [17]: 0; Kochia plant response rating [18]: 0; Plant response rating, Kochia [18]: 30; Ryegrass, Italian plant response rating [19]: 0; Plant response rating, Ryegrass, Italian [19]: 0; Foxtail, Giant plant response rating [20]: 0; Plant response rating, Foxtail, Giant [20]: 30 |
| CC(COc1cccc(C(F)(F)F)c1)Nc1ncc(C(F)(F)F)c(N)n1 (stereo not drawn) [Compound 34] | 0 | 0 | 0 | 60 | 30 | 70 | 0 | 0 | 0 | 0 | 60 | 10 | 90 | 30 | 70 | 0 | 10 | 0 | 30 | 0 | Plant response rating, Barnyardgrass ([12]; 125 g ai/ha): 0; Plant response rating, Barnyardgrass ([12]; 500 g ai/ha): 20; Plant response rating, Barnyardgrass (0 to 100 scale, 0 is no effect, 100 is complete control) [13]: 0; Plant response rating, Foxtail, Giant ([14]; 125 g ai/ha): 0; Plant response rating, Foxtail, Giant ([14]; 500 g ai/ha): 30; Ragweed plant response rating [15]: 20; Plant response rating, Ragweed [15]: 80; Plant response rating, Rice (0 to 100 scale, 0 is no effect, 100 is complete control) [16]: 0; Barnyardgrass plant response rating [17]: 80; Plant response rating, Barnyardgrass [17]: 100; Kochia plant response rating [18]: 0; Plant response rating, Kochia [18]: 80; Ryegrass, Italian plant response rating [19]: 0; Plant response rating, Ryegrass, Italian [19]: 30; Foxtail, Giant plant response rating [20]: 50; Plant response rating, Foxtail, Giant [20]: 90 |
| CC(COc1cc(Cl)cc(Cl)c1)Nc1ncc(C(F)(F)F)c(N)n1 (stereo not drawn) [Compound 35] | 0 | 0 | 0 | 50 | 0 | 20 | 0 | 0 | 0 | 40 | 30 | 0 | 0 | 0 | 60 | 0 | 0 | 0 | 0 | 0 | Plant response rating, Barnyardgrass ([12]; 125 g ai/ha): 20; Plant response rating, Barnyardgrass ([12]; 500 g ai/ha): 0; Plant response rating, Barnyardgrass (0 to 100 scale, 0 is no effect, 100 is complete control) [13]: 0; Plant response rating, Foxtail, Giant ([14]; 125 g ai/ha): 0; Plant response rating, Foxtail, Giant ([14]; 500 g ai/ha): 0; Ragweed plant response rating [15]: 0; Plant response rating, Ragweed [15]: 0; Plant response rating, Rice (0 to 100 scale, 0 is no effect, 100 is complete control) [16]: 0; Barnyardgrass plant response rating [17]: 0; Plant response rating, Barnyardgrass [17]: 0; Kochia plant response rating [18]: 0; Plant response rating, Kochia [18]: 40; Ryegrass, Italian plant response rating [19]: 0; Plant response rating, Ryegrass, Italian [19]: 0; Foxtail, Giant plant response rating [20]: 0; Plant response rating, Foxtail, Giant [20]: 0 |
| CC(COc1cc(F)c(F)c(F)c1)Nc1ncc(C(F)(F)F)c(N)n1 (stereo not drawn) [Compound 36] | 0 | 0 | 0 | 0 | 0 | 0 | 0 | 0 | 0 | 0 | 0 | 0 | 0 | 0 | 0 | 10 | 0 | 0 | 0 | 0 | Plant response rating, Barnyardgrass ([12]; 125 g ai/ha): 0; Plant response rating, Barnyardgrass ([12]; 500 g ai/ha): 0; Plant response rating, Barnyardgrass (0 to 100 scale, 0 is no effect, 100 is complete control) [13]: 0; Plant response rating, Foxtail, Giant ([14]; 125 g ai/ha): 0; Plant response rating, Foxtail, Giant ([14]; 500 g ai/ha): 0; Ragweed plant response rating [15]: 0; Plant response rating, Ragweed [15]: 0; Plant response rating, Rice (0 to 100 scale, 0 is no effect, 100 is complete control) [16]: 0; Barnyardgrass plant response rating [17]: 0; Plant response rating, Barnyardgrass [17]: 0; Kochia plant response rating [18]: 70; Plant response rating, Kochia [18]: 30; Ryegrass, Italian plant response rating [19]: 0; Plant response rating, Ryegrass, Italian [19]: 0; Foxtail, Giant plant response rating [20]: 0; Plant response rating, Foxtail, Giant [20]: 0 |
